# Test results from PMC6331991, “Anemarrhena asphodeloides Non-Steroidal Saponin Components Alter the Pharmacokinetic Profile of Its Steroidal Saponins in Rat” (Molecules, 2015).
# Read-outs that look alike come from different tables or passages of the source.
# Legend:
# [1] = Pharmacokinetic study of four steroidal saponins in rat plasma after oral administration of A. asphodeloides fractions (UPLC-MS/MS); format: in vivo, Sprague-Dawley rats; conditions: rat, in vivo, po; for AUC(0-t) / half-life / Cmax / Tmax: male, Sprague-Dawley, 400 mg/kg
# Procedure: The dried A. asphodeloides were chopped into slices before using. The A. asphodeloides was immersed in water (1:10, w/v) and extracted twice by refluxing for 2 h. After filtration, the supernatant was condensed to a certain volume under reduced pressure, and 95% ethanol was added to the water extract filtrates until the concentration of ethanol was 80%. The precipitate was filtered as the macromolecular fraction (MF), the ethanol supernatant was concentrated under reduced pressure to a certain volume under vacuum and then purified by gradient elution with water, 40% ethanol and 70% ethanol from an AB-8 MARO porous resin column and then the water-eluted fraction was combined with the 40% ethanol-eluted fraction as the small molecule fraction (SF) and the 70% ethanol eluted fraction was the A. asphodeloides saponins extract (ASE). All of the residues were lyophilized and the resulting dry powder was stored at 4 °C before usage. The contents of four steroidal saponins in ASE dry powder were measured quantitatively by the external standard method using the same chromatography conditions as described above. The contents of timosaponin BII, anemarsaponin BIII, timosaponin AIII and timosaponin E1 in ASE were 429.12, 89.81, 59.13 and 41.25 mg/g, respectively.
# Frozen plasma samples were unfrozen at room temperature and treated as follows: to each 200 µL plasma sample, 20 µL of IS (920 ng/mL ginsenoside Re) working solution and 600 µL of acetonitrile were added. After vortexing for 2 min and centrifugation at 13,000 rpm at 4 °C for 10 min the supernatant was transferred into a new tube and evaporated to dryness in a rotary evaporator at 39 °C and the residue was reconstituted in 100 µL of 0.1% formic acid–acetonitrile (50:50, v/v), vortexed for 2 min and centrifuged at 13,000 rpm at 4 °C for 10 min. The supernatant was transferred to an autosampler vial and an aliquot of 2 μL was injected onto the UPLC-MS/MS system for analysis.
# Male Sprague-Dawley rats (250–280 g) were obtained from the Shanghai Slac Laboratory Animal Co., Ltd. (Shanghai, China). All animals were kept in an environmentally controlled breeding room (temperature: 20–25 °C, humidity: 55%–65%) for 1 week before the experiments started. Animal welfare and experimental procedures were strictly in accordance with the ethical norms of the Nanjing University of Chinese Medicine. All rats were fasted for 12 h with free access to water prior to the experiments, twenty-four rats were divided into four groups and then were given a single dose of ASE, ASE-SF, AS-MF, AS-M-SF. A 40 mg/mL ASE (the amount of MF, SF added to group AS-MF, ASE-SF, AS-M-SF were based on the proportion extracted from A. asphodeloides) aqueous solution in each group was administered orally at a dose of 400 mg/kg, which contained 171.61, 35.92, 23.62, 16.53 mg/kg of timosaponin BII, anemarsaponin BIII, timosaponin AIII, timosaponin E1, respectively.
# About 400 μL blood samples were collected from venipuncture before intragastric gavage and at 0.083, 0.25, 0.5, 1, 1.5, 2, 4, 6, 8, 10, 12, 24 h after a single oral administration. The blood samples were immediately transferred to heparinized tubes and centrifuged at 3000 rpm for 10 min, and the supernatant was transferred into 2.0 mL Eppendorf tubes and stored at −80 °C prior to analysis. Blank plasma was obtained from the rat without oral administration and was used to investigate the assay development and validation.
# To calculate the pharmacokinetic parameters of analytes in different group, concentrations–time dada were analyzed by DAS 3.2 software (Mathematical Pharmacology Professional Committee of China, Shanghai, China, 2011). Data were measured as the mean ± standard deviation (S.D.) with triplicate measurements. The identification of significances between different groups was executed with Student’s t-test. A p value < 0.05 was considered statistically significant.
# [2] = set-up: method as in PMID 20686523, PMID 23542670; conditions: plasma concentration peak; cited from earlier work
Structure (SMILES),AUC(0-t) [1] [ng·h/mL],half-life [1] [h],AUC(0-t) ([1]; AUC0–t) [ng·h/mL],Cmax [1] [ng/mL],half-life ([1]; T1/2) [h],Tmax [1] [h],T1/2 [1],shape of plasma concentration-time curve [1],shape of plasma concentration-time curve [2]
"CC1=C(CCC(C)COC2OC(CO)C(O)C(O)C2O)OC2CC3C4CCC5CC(OC6OC(CO)C(O)C(O)C6OC6OC(CO)C(O)C(O)C6O)CCC5(C)C4CCC3(C)C12 (centres unmarked) [Anemarsaponin BIII, anemarsaponin BIII]",551 ± 75,7.63 ± 3.37,257 ± 20.4,34.5 ± 3.75,2.75 ± 1.14,3.75 ± 1.78,no obvious difference,double peak,
"CC(CCC1(O)OC2C(O)C3C4CCC5CC(OC6OC(CO)C(O)C(O)C6OC6OC(CO)C(O)C(O)C6O)CCC5(C)C4CCC3(C)C2C1C)COC1OC(CO)C(O)C(O)C1O (centres unmarked) [Timosaponin E1, timosaponin E1]",286 ± 36.8,8.8 ± 3.83,115 ± 5.35,18.9 ± 1.54,2.95 ± 0.4,4,no obvious difference,double peak,
C[C@H]1CC[C@@]2(OC1)O[C@H]1C[C@H]3[C@@H]4CC[C@@H]5C[C@@H](O)CC[C@]5(C)[C@H]4CC[C@]3(C)[C@H]1[C@@H]2C [sarsasapogenin],,,,,,,,,single plasma concentration peak
